Experiments:
[1] = tested on: transplant rejection; conditions: useful in preventing transplant rejection; cited from earlier work
[2] = tested on: pulmonary inflammation; conditions: U.S. Pat. No. 5,080,899; cited from earlier work
[3] = tested on: Microsporum gypseum; conditions: cited from earlier work
[4] = tested on: thymocyte; conditions: in vitro; cited from earlier work
[5] = tested on: adjuvant arthritis; conditions: model for rheumatoid arthritis; Martel 1977; cited from earlier work
[6] = tested on: Candida albicans; conditions: cited from earlier work
[7] = tested on: insulin dependent diabetes mellitus; conditions: Fifth Int. Conf. Inflamm. Res. Assoc. 1990; cited from earlier work
[8] = tested on: IgE-like antibodies; conditions: Martel 1977; cited from earlier work
[9] = tested on: systemic lupus erythematosus; conditions: U.S. Pat. No. 5,078,999; cited from earlier work
[10] = cited from earlier work
[11] = tested on: tumor; conditions: in vivo; cited from earlier work
[12] = tested on: rejection in vivo in allograft transplantation; conditions: Calne 1989; Morris and Meiser 1989; cited from earlier work
[13] = tested on: smooth muscle cell proliferation and intimal thickening; conditions: following vascular injury; Morris 1992; cited from earlier work
[14] = tested on: experimental allergic encephalomyelitis; conditions: model for multiple sclerosis; Martel 1977; cited from earlier work
[15] = parameters: species or system Cynomolgus monkeys; conditions: cynomolgus monkey, in vivo, po, 50 mg/kg
Experimental: Cynomolgus monkeys were administered the formulation above at a dose of 0.25 mg/kg of rapamycin and the following serum concentrations were determined at the indicated time after dosing.
Cynomolgus monkeys were administered the above formulation at a dose of 50 mg/kg of rapamycin and the following serum concentrations were determined at the indicated time after dosing.
Cynomolgus monkeys were administered this second comparative formulation at a dose of 50 mg/kg of rapamycin and the following serum concentrations were determined at the indicated time after dosing.

SMILES | immunosuppressive effect [1] | preventing or treating pulmonary inflammation [2] | effect on growth of fungi [3] | thymocyte proliferation [4] | efficacy in adjuvant arthritis model [5] | effect on growth of fungi [6] | preventing or treating insulin dependent diabetes mellitus [7] | formation of IgE-like antibodies [8] | preventing or treating systemic lupus erythematosus [9] | activity in vivo [10] | antitumor activity [11] | inhibiting rejection in vivo in allograft transplantation [12] | preventing or treating smooth muscle cell proliferation and intimal thickening [13] | efficacy in experimental allergic encephalomyelitis model [14] | Rapamycin Concentration in Monkey Serum [15]
C=CC[C@@H]1/C=C(\C)C[C@H](C)C[C@H](OC)[C@H]2O[C@@](O)(C(=O)C(=O)N3CCCC[C@H]3C(=O)O[C@H](/C(C)=C/[C@@H]3CC[C@@H](O)[C@H](OC)C3)[C@H](C)[C@@H](O)CC1=O)[C@H](C)C[C@@H]2OC [FK-506] | effective as immunosuppressive agents |  |  |  |  |  |  |  |  |  |  |  |  |  | 
CO[C@H]1C[C@@H]2CC[C@@H](C)[C@@](O)(O2)C(=O)C(=O)N2CCCC[C@H]2C(=O)O[C@H]([C@H](C)C[C@@H]2CC[C@@H](O)[C@H](OC)C2)CC(=O)[C@H](C)/C=C(\C)[C@@H](O)[C@@H](OC)C(=O)[C@H](C)C[C@H](C)/C=C/C=C/C=C/1C [Rapamycin, rapamycin] | immunosuppressive effects | useful in preventing or treating | adversely affects the growth of fungi | inhibit thymocyte proliferation in vitro | effective | adversely affects the growth of fungi | useful in preventing or treating | effectively inhibited | useful in preventing or treating | immunosuppressive, antifungal and antiinflammatory activity in vivo | antitumor activity | effectiveness of rapamycin in inhibiting rejection in vivo in allograft transplantation | useful in preventing or treating | effective | 
CO[C@H]1C[C@@H]2CC[C@@H](C)[C@@](O)(O2)C(=O)C(=O)N2CCCC[C@H]2C(=O)O[C@H]([C@H](C)C[C@@H]2CC[C@@H](O)[C@H](OC)C2)CC(=O)[C@H](C)/C=C(\C)[C@@H](O)[C@@H](OC)C(=O)[C@H](C)C[C@H](C)/C=C/C=C/C=C/1C [Comparative Example 2] |  |  |  |  |  |  |  |  |  |  |  |  |  |  | BDL (key: BDL: Below detection limit (detection limit = 0.006 μg/ml))

Source: patent US5536729A, “Rapamycin formulations for oral administration” (priority 1994, dated 1996)
